Where two headings read alike, the source gives them in different places.
Assays:
CDK2/Cyclin E1 = CDK2/Cyclin E1 (Homo sapiens, UniProt P24941); experiment: NanoBRET live-cell target engagement, CDK2-NanoLuc/Cyclin E1 in HEK-293; assay type: binding; settings: CDK2/E1
CDK20/Cyclin H = CDK20/Cyclin H (Homo sapiens, UniProt Q8IZL9); experiment: NanoBRET live-cell target engagement, NanoLuc-CDK20/Cyclin H in HEK-293; assay type: binding; settings: 10µM
CDK15/Cyclin Y = CDK15/Cyclin Y (Homo sapiens, UniProt Q96Q40); experiment: NanoBRET live-cell target engagement, NanoLuc-CDK15/Cyclin Y in HEK-293; assay type: binding; settings: for IC50: CDK15/Y
Chain of CDK15/Cyclin Y (Q96Q40 whole entry): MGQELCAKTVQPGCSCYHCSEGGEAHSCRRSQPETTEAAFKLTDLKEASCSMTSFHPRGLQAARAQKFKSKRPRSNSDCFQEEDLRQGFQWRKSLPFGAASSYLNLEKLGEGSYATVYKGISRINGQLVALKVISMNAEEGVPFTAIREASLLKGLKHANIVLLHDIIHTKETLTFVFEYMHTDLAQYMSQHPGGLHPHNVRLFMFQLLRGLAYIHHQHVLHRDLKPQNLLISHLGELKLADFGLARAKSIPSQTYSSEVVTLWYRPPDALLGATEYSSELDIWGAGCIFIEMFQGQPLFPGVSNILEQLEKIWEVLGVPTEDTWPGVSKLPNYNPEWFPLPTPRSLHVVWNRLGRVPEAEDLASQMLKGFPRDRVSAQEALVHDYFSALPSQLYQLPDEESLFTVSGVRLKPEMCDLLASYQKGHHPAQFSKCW
Chain of CDK15/Cyclin Y (Q8ND76 whole entry partner): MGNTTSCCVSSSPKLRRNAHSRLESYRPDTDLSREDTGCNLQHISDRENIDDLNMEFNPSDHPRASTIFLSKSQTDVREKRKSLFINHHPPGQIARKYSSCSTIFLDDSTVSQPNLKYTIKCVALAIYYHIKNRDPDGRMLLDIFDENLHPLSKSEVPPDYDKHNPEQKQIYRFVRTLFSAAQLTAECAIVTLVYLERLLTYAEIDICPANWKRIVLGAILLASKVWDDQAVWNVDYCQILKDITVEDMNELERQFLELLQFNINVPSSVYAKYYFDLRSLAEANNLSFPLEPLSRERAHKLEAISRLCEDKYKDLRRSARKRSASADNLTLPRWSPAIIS

CDK7 = CDK7 (Homo sapiens, UniProt P50613); experiment: NanoBRET live-cell target engagement, NanoLuc-CDK7 in HEK-293; assay type: binding; settings: 10µM
Chain of CDK7 (P50613 whole entry): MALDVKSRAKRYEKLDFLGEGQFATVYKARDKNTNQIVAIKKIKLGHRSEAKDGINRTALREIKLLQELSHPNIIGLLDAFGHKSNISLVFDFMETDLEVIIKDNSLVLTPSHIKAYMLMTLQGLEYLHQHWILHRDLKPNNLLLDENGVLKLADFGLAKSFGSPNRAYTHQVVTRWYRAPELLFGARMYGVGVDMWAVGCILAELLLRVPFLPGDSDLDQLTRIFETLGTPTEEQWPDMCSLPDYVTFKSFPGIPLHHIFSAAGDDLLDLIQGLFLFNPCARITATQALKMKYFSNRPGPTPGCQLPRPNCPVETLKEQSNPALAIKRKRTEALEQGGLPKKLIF

CDK10/Cyclin L2 = CDK10/Cyclin L2 (Homo sapiens, UniProt Q15131); experiment: NanoBRET live-cell target engagement, CDK10-NanoLuc/Cyclin L2 in HEK-293; settings: 10µM
Chain of CDK10/Cyclin L2 (Q15131 whole entry): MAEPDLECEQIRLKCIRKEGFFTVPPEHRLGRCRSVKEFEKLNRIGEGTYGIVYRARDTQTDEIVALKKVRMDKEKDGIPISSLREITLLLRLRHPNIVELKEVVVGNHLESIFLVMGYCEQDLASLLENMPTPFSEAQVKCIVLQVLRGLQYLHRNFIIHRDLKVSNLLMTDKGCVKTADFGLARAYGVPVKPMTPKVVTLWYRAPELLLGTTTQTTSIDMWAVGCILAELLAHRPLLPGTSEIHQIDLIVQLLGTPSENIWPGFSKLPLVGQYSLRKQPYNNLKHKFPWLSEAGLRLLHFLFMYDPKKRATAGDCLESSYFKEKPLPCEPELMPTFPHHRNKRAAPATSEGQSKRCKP

CDK17/Cyclin Y = CDK17/Cyclin Y (Homo sapiens, UniProt Q00537); experiment: NanoBRET live-cell target engagement, CDK17-NanoLuc/Cyclin Y in HEK-293; assay type: binding; settings: 10µM
Chain of CDK17/Cyclin Y (Q00537 whole entry): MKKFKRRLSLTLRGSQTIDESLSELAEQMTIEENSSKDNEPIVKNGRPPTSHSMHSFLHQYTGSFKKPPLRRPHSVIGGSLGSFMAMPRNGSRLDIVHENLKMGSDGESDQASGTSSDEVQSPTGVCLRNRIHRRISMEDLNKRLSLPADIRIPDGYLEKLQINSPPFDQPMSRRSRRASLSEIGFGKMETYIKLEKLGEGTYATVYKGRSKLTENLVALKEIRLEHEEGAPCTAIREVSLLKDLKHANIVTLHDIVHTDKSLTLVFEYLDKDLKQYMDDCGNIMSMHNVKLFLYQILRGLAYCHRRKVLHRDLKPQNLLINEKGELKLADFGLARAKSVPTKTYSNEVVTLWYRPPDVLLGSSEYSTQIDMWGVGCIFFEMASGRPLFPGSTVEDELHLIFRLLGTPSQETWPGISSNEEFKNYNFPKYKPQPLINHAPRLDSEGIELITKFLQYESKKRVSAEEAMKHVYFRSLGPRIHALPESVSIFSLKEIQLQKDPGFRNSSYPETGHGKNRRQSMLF
Chain of CDK17/Cyclin Y (Q8ND76 whole entry partner): as the sequence (Q8ND76 whole entry partner) above

CDK8/Cyclin C = CDK8/Cyclin C (Homo sapiens, UniProt P49336); experiment: NanoBRET live-cell target engagement, NanoLuc-CDK8/Cyclin C in HEK-293; assay type: binding; settings: CDK8/C, 10µM
Chain of CDK8/Cyclin C (P49336 whole entry): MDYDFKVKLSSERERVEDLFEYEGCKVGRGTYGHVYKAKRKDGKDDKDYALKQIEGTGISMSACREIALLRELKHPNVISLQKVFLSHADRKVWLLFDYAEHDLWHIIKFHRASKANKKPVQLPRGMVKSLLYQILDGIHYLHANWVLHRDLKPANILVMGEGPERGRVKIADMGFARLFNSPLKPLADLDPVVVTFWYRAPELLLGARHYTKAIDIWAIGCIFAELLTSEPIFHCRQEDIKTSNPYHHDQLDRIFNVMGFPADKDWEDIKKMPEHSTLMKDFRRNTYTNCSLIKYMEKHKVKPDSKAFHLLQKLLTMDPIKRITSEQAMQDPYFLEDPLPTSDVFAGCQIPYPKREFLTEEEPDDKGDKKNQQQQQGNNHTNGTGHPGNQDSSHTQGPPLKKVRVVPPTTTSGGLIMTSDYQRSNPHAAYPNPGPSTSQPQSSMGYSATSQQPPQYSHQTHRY
Chain of CDK8/Cyclin C (P24863 whole entry partner): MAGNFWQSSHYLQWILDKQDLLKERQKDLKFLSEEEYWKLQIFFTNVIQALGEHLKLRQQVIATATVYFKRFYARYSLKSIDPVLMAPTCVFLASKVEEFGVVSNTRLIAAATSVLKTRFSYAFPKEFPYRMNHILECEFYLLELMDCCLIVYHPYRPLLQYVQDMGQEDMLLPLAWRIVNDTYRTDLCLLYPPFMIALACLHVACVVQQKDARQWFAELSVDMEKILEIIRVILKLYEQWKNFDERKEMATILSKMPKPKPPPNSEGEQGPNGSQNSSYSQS

CDK13/Cyclin K = CDK13/Cyclin K (Homo sapiens, UniProt Q14004); experiment: NanoBRET live-cell target engagement, CDK13-NanoLuc/Cyclin K in HEK-293; assay type: binding; settings: CDK13/K, 10µM
Chain of CDK13/Cyclin K (O75909 whole entry): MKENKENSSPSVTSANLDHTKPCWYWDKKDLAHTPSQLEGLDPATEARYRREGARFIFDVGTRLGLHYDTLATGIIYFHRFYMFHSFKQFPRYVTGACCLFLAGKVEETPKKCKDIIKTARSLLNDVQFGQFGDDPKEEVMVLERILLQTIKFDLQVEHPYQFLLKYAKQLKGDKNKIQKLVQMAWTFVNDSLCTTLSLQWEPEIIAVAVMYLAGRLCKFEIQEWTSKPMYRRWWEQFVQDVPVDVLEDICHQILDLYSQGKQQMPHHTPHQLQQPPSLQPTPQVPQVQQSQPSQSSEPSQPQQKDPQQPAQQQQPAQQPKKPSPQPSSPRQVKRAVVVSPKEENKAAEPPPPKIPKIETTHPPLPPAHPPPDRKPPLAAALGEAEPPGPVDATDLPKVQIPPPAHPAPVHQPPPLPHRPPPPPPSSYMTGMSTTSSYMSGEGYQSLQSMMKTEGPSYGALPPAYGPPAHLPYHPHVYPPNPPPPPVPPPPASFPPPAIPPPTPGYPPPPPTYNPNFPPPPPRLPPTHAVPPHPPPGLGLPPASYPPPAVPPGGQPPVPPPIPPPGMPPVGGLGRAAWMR
Chain of CDK13/Cyclin K (Q14004 other isoform, or with tags, fused parts or gaps): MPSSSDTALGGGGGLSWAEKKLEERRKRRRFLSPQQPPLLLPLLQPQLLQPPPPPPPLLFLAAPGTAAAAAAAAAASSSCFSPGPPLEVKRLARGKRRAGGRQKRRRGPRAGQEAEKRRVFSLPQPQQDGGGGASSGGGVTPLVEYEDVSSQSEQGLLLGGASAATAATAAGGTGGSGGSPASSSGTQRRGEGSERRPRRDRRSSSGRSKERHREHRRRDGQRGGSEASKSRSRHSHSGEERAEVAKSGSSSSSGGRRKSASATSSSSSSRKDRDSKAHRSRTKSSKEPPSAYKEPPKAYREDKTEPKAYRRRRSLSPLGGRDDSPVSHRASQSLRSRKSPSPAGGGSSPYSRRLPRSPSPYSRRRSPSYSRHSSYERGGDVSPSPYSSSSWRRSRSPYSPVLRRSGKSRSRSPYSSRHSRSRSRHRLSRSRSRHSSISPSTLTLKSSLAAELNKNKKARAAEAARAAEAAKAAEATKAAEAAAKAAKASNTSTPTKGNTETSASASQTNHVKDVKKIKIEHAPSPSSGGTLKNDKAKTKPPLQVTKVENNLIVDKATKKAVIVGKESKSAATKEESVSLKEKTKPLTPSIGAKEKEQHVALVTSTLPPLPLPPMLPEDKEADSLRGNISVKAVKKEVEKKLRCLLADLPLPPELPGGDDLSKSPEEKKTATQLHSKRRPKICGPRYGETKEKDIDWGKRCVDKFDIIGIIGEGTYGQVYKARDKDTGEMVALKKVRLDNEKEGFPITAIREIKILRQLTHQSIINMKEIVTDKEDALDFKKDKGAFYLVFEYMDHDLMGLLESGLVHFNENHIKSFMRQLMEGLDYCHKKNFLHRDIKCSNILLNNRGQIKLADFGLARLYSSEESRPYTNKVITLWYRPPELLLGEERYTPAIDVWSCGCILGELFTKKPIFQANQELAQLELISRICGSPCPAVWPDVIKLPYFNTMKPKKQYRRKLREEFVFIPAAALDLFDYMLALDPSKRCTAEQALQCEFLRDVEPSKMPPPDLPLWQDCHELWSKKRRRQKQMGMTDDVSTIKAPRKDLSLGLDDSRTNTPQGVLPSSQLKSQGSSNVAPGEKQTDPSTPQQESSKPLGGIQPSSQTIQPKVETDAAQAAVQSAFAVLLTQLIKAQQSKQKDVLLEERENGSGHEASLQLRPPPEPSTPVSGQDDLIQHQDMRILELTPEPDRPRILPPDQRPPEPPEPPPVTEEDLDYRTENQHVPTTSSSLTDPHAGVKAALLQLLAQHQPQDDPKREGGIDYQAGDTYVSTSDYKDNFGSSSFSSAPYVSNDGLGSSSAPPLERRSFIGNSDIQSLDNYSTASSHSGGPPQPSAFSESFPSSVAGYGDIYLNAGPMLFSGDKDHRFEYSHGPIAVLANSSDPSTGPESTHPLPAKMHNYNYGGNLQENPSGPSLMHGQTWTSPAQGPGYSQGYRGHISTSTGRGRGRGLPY

CDK12/Cyclin K = CDK12/Cyclin K (Homo sapiens, UniProt Q9NYV4); experiment: NanoBRET live-cell target engagement, CDK12-NanoLuc/Cyclin K in HEK-293; assay type: binding; settings: 10µM
CDK1/Cyclin E1 = CDK1/Cyclin E1 (Homo sapiens, UniProt P06493); experiment: NanoBRET live-cell target engagement, CDK1-NanoLuc/Cyclin E1 in HEK-293; assay type: binding; settings: CDK1/E1, 10µM
CDK14/Cyclin Y = CDK14/Cyclin Y (Homo sapiens, UniProt O94921); experiment: NanoBRET live-cell target engagement, CDK14-NanoLuc/Cyclin Y in HEK-293; assay type: binding; settings: for IC50: CDK14/Y
[1] = n=3 average ± SEM, n=2 average to 2 significant figures, read-out: IC50 (nM) Average*
[2] = read-out: IC50 (nM) Replicate 1
[3] = read-out: IC50 (nM) Replicate 2
[4] = read-out: IC50 (nM) Replicate 3
[5] = average of replicates, read-out: Inhibition at 10µM (%) Average
[6] = read-out: Inhibition at 10µM (%) Replicate 1
[7] = read-out: Inhibition at 10µM (%) Replicate 2

C[C@H]1CC[C@H](n2c3cnccc3c3cnc(Nc4ccc5c(n4)CCN(C(=O)CO)C5)nc32)CC1 [AMG 925]
IC50 (CDK2/Cyclin E1; [1]): 310 ± 70 nM
IC50 (CDK2/Cyclin E1; [2]): 171 nM
IC50 (CDK2/Cyclin E1; [3]): 400 nM
IC50 (CDK2/Cyclin E1; [4]): 370 nM
inhibition at 10 µM (CDK20/Cyclin H; read-out: Inhibition at 10µM (%) Replicate 1, CDK20/H): 24.8%
inhibition at 10 µM (CDK20/Cyclin H; read-out: Inhibition at 10µM (%) Replicate 2, CDK20/H): 6.8%
IC50 (CDK15/Cyclin Y; [1]): 820 ± 50 nM
IC50 (CDK15/Cyclin Y; [2]): 842 nM
IC50 (CDK15/Cyclin Y; [3]): 720 nM
IC50 (CDK15/Cyclin Y; [4]): 901 nM
inhibition at 10 µM (CDK15/Cyclin Y; read-out: Inhibition at 10µM (%) Average, CDK15/Y, average of replicates): 55.3%
inhibition at 10 µM (CDK15/Cyclin Y; read-out: Inhibition at 10µM (%) Replicate 1, CDK15/Y): 50.5%
inhibition at 10 µM (CDK15/Cyclin Y; read-out: Inhibition at 10µM (%) Replicate 2, CDK15/Y): 60.1%
inhibition at 10 µM (CDK7; read-out: Inhibition at 10µM (%) Average, CDK7, average of replicates): 27.8%
inhibition at 10 µM (CDK7; read-out: Inhibition at 10µM (%) Replicate 1, CDK7): 10.8%
inhibition at 10 µM (CDK7; read-out: Inhibition at 10µM (%) Replicate 2, CDK7): 44.9%
inhibition at 10 µM (CDK10/Cyclin L2; read-out: Inhibition at 10µM (%) Average, CDK10/L2, average of replicates): 2.1%
inhibition at 10 µM (CDK10/Cyclin L2; read-out: Inhibition at 10µM (%) Replicate 1, CDK10/L2): 1.6%
inhibition at 10 µM (CDK10/Cyclin L2; read-out: Inhibition at 10µM (%) Replicate 2, CDK10/L2): 2.6%
inhibition at 10 µM (CDK17/Cyclin Y; read-out: Inhibition at 10µM (%) Average, CDK17/Y, average of replicates): 43.6%
inhibition at 10 µM (CDK17/Cyclin Y; read-out: Inhibition at 10µM (%) Replicate 1, CDK17/Y): 42.5%
inhibition at 10 µM (CDK17/Cyclin Y; read-out: Inhibition at 10µM (%) Replicate 2, CDK17/Y): 44.7%
inhibition at 10 µM (CDK8/Cyclin C; [5]): 12.6%
inhibition at 10 µM (CDK8/Cyclin C; [6]): 13.8%
inhibition at 10 µM (CDK8/Cyclin C; [7]): 11.5%
inhibition at 10 µM (CDK13/Cyclin K; [5]): -2.5%
inhibition at 10 µM (CDK13/Cyclin K; [6]): 3.8%
inhibition at 10 µM (CDK13/Cyclin K; [7]): -8.8%
inhibition at 10 µM (CDK12/Cyclin K; read-out: Inhibition at 10µM (%) Average, CDK12/K, average of replicates): 8%
inhibition at 10 µM (CDK12/Cyclin K; read-out: Inhibition at 10µM (%) Replicate 1, CDK12/K): 7.8%
inhibition at 10 µM (CDK12/Cyclin K; read-out: Inhibition at 10µM (%) Replicate 2, CDK12/K): 8.2%
inhibition at 10 µM (CDK1/Cyclin E1; [5]): 34.5%
inhibition at 10 µM (CDK1/Cyclin E1; [6]): 45.4%
inhibition at 10 µM (CDK1/Cyclin E1; [7]): 23.6%
IC50 (CDK14/Cyclin Y; [1]): 600 ± 200 nM
IC50 (CDK14/Cyclin Y; [2]): 217 nM
IC50 (CDK14/Cyclin Y; [3]): 690 nM
IC50 (CDK14/Cyclin Y; [4]): 766 nM
inhibition at 10 µM (CDK14/Cyclin Y; read-out: Inhibition at 10µM (%) Average, CDK14/Y, average of replicates): 32.4%
inhibition at 10 µM (CDK14/Cyclin Y; read-out: Inhibition at 10µM (%) Replicate 1, CDK14/Y): 39%
inhibition at 10 µM (CDK14/Cyclin Y; read-out: Inhibition at 10µM (%) Replicate 2, CDK14/Y): 25.8%

Source: PMC7265341, “Quantifying CDK inhibitor selectivity in live cells” (Nature Communications, 2020)
